Measurements from patent publication USRE47267E1, “Pyridinecarboxamides as CXCR2 modulators” (Syntrix Biosystems, Inc., priority 2009, dated 2019).

Legend:
neutrophil influx [1] = assay: Murine air pouch model of neutrophil chemotaxis (p.o.); format: in vivo, male CD-1 mice; settings: for total neutrophil counts in the blood: high doses, compared to control animals, data not shown
Experimental: Compounds 1 (SX-517) and 2 (SX-576) were also assayed in an in vivo air-pouch model of inflammation. SX-517 and SX-576 were able to attenuate neutrophil influx in the air-pouch model by about 50% at an oral dose of 0.2 and 0.05 mg/kg, respectively. […] More specifically, the procedure was performed by forming an air pouch on the backs of male CD-1 mice via the subcutaneous injection of air (2 mL). The next day, an additional subcutaneous injection of air (1.5 mL) was performed to reinflate the air pouch. The mice were given either vehicle control (Labrasol®) or test compound solubilized in Labrasol® via oral gavage. After 3 hours, either sterile phosphate buffered saline (PBS, 1 ml) or 2% carrageenan in sterile PBS (1 mL) was injected into the air pouch. After 4 hours, the mice were sedated with ketamine, and sacrificed by cervical dislocation. The exudate in the air pouch was collected by syringe, with an additional 2 mL wash with sterile PBS. The neutrophils were stained with trypan blue and counted on a hemocytometer under 20× magnification.

CXCR2 [2] = molecular target: T1, CXCR2 (Homo sapiens (Human), UniProt P25025); assay: Wash-resistant inhibition of GROα-mediated intracellular calcium release in isolated human neutrophils; format: cell-based; settings: 0.4, 2 and 10 μM, 30 min incubation, washed; time points out to 6 hours; FIG. 1
Experimental: The cells were washed and resuspended in RPMI/2% serum (serum was obtained from the same donor as the neutrophils). The concentration of the neutrophil suspension was 10^7 cells/mL. […] The neutrophils were washed and resuspended in RPMI/2% serum and maintained at room temperature. At 30 minutes before each time point, a 56.25 μL aliquot of the neutrophils were removed and loaded for 30 minutes at room temperature in the dark with FLIPR-3 reagent (262.5 μL per tube).

[3] = Crossover pharmacokinetic experiment in Beagle dogs; format: in vivo; settings: for plasma level: dosed to Beagle dogs without excipient, data not shown
Experimental: In this study, male Beagle dogs (n=5) were dosed intravenously on study day 1 with SX-576 in dimethylformamide/PEG400/saline (40:40:20) at a dose level of 5 mg/kg and a dose volume of 0.5 mL/kg. Blood samples were taken predose, and at time points 30, 60, 90, 120, 180, 360, 540 and 720 minutes. The blood was collected in tubes containing K2EDTA as an anticoagulant, and the tubes were centrifuged and the plasma fractions collected and frozen. After a one-week washout period, the same Beagle dogs were dosed orally with SX-576 in lipid based excipient Gelucire® 44/14 (Gattefosse) at a dose level of 5 mg/kg. Blood samples were then taken and plasma fractions collected as previously described. Prior to analysis, the plasma samples were thawed and diluted 1:3 into acetonitrile containing 1 μM of compound 153 as an internal standard. The resulting samples were centrifuged and the supernatant analyzed by LC-MS monitoring in multiple reaction monitoring mode. The samples were run concomitantly with a calibration curve of SX-576 in the same internal standard solution.
(§1) The lipid based excipient Gelucire® 44/14 is a self-emulsifying drug delivery system (SEDDS) that is able to solubilize both SX-517 and SX-576 into aqueous solutions via micellular formation. […] Therefore, lipid-based emulsifiers are important excipients for the oral delivery of SX-576.

[4] = system: ozone-induced pulmonary inflammation; assay: Ozone rat model of pulmonary inflammation; format: in vivo, Sprague-Dawley rats; settings: 1 mg/kg i.v. at t=0, 5, 9 h, 1 ppm ozone 4 h
Experimental: Activity in this model of pulmonary inflammation would provide direct relevance towards the treatment of a number of pulmonary inflammatory diseases, including chronic obstructive pulmonary disease (COPD) and bronchopulmonary dysplasia (BPD). In this experiment, Sprague-Dawley rats (n=4 per cohort) were dosed intravenously at t=0 with either vehicle (negative and positive groups, dimethylformamide/PEG400/saline, 40:40:20) or SX-576 (1 mg/kg). The rats were then placed in air (negative group) or 1 ppm ozone (positive and SX-576 groups) for 4 hours. The rats were dosed again at t=5 and 9 hours. The rats were then sacrificed at t=24 hours, and the bronchoalveolar lavage fluid (BALF) was collected. The cells were spun down, stained with Wright-Giemsa and counted. In the negative groups, no neutrophils were observed when stained. As a measure of lung leakage/damage, protein levels were quantified in BALF by Bradford protein assay analysis.

CXCR2 [5] = molecular target: T1, CXCR2; assay: β-arrestin recruitment to CXCR2 (β-galactosidase fragment complementation, DiscoveRx); settings: for inhibition of β-arrestin recruitment following CXCR2 activation with IL-8: FIG. 2; for activity on β-arrestin complexation with CXCR2 in the absence of IL8: FIG. 3
neutrophil influx [6] = assay: Murine air pouch model of neutrophil chemotaxis (i.v.); format: in vivo, male CD-1 mice; settings: all tested dose levels 0.02, 0.05, 0.2 and 1.0 mg/kg, FIG. 6
Experimental: The procedure was performed by forming an air pouch on the backs of male CD-1 mice via the subcutaneous injection of air (2 mL). The next day, an additional subcutaneous injection of air (1.5 mL) was performed to reinflate the air pouch. The mice were given either vehicle control (dimethylformamide/PEG400/saline) or test compound solubilized in vehicle via tail vein injection. After 30 minutes, either sterile phosphate buffered saline (PBS, 1 ml) or 2% carrageenan in sterile PBS (1 mL) was injected into the air pouch. After 4 hours, the mice were sedated with ketamine, and sacrificed by cervical dislocation. The exudate in the air pouch was collected by syringe, with an additional 2 mL wash with sterile PBS. The neutrophils were stained with trypan blue and counted on a hemocytometer under 20× magnification.

Aqueous solubility = format: physicochemical
Source text: as §1

CXCR2 [7] = molecular target: T1, CXCR2; assay: Inhibition of GROα-mediated intracellular calcium release in human neutrophils (FLIPR-3 Ca2+ mobilization assay); format: cell-based; settings: GROα 25 nM
Experimental: This assay measures intracellular calcium release via fluorescence as an indication of CXCR2 receptor activation by the physiologic agonist GROα. The assay is a Ca^2+ mobilization assay that measures changes in intracellular Ca^2+ with a FlexStation II scanning fluorometer using a FLIPR-3 Calcium Assay Kit (Molecular Devices, Sunnyvale, Calif.). The procedure is as follows: • 1. Human neutrophils were suspended in HBSS^− (without Ca^2+ and Mg^2+) containing 10 mM HEPES and FLIPR Calcium 3 dye (3.1×10^7 cells in total volume 1.7 mL). • 2. […] As controls, 2 μL of DMSO (1% final concentration) were added to other 2 tubes. • 3. Cells were incubated for 30 min at 37° C. • 4. After dye loading, tubes were centrifuged at 6,000 rpm for 1 min, supernatant was removed and cell pellet was re-suspended in 200 μL of HBSS^+ (with Ca^+ and Mg^2+) containing 10 mM HEPES. • 5. The compound or DMSO (control) was added again at the same concentrations that were used during cell loading. • 6. The cell suspension was aliquoted into a 96-well Reading Plate (Corning) in a volume of 90 μL (10^5 cells/well). The Compound Plate contained physiologic agonist (GROα in HBSS^−) or HBSS^− (control). • 7. […] The maximum change in fluorescence, expressed in arbitrary units over baseline (Max-Min) was used to determine the GROα response.
Briefly, human neutrophils were suspended in HBSS (without Ca^2+ and Mg^2+) containing 10 mM HEPES and FLIPR Calcium 3 dye (3.1×10^7 cells in total volume 1.7 mL). […] As controls, 2 μL of DMSO (1% final concentration) were added to 2 other tubes. Cells were incubated for 30 min at 37° C. After dye loading, tubes were centrifuged at 6,000 rpm for 1 min, supernatant was removed and the cell pellet was re-suspended in 200 μL of HBSS^+ (with Ca^2+ and Mg^2+) containing 10 mM HEPES. […] The cell suspension was aliquoted into a 96-well Reading Plate (Corning) in a volume of 90 μL (10^5 cells/well). […]
(§2) The maximum change in fluorescence, expressed in arbitrary units over baseline (Max-Min), was used to determine the GROα response.

CXCR2 [8] = molecular target: T1, CXCR2; assay: In vitro agonist activity: intracellular calcium release in human neutrophils in the absence of GROα; format: cell-based
Experimental: This assay measures intracellular calcium release via fluorescence as an indication of CXCR2 receptor activation by the physiologic agonist GROα. The assay is a Ca^2+ mobilization assay that measures changes in intracellular Ca^2+ with a FlexStation II scanning fluorometer using a FLIPR-3 Calcium Assay Kit (Molecular Devices, Sunnyvale, Calif.). The procedure is as follows: • 1. Human neutrophils were suspended in HBSS^− (without Ca^2+ and Mg^2+) containing 10 mM HEPES and FLIPR Calcium 3 dye (3.1×10^7 cells in total volume 1.7 mL). • 2. […] As controls, 2 μL of DMSO (1% final concentration) were added to other 2 tubes. • 3. Cells were incubated for 30 min at 37° C. • 4. […] The cell suspension was aliquoted into a 96-well Reading Plate (Corning) in a volume of 90 μL (10^5 cells/well). […] After 15 sec of reading the basal level of fluorescence using the FlexStation II instrument, 10 μL of GROα or HBSS^− were automatically transferred from the Compound Plate into the Reading Plate (final concentration of GROα was 25 nM). • 8. Changes in fluorescence were monitored (λex=485 nm, λem=525 nm) every 5 s for 240 to 500 s at room temperature. • 9. The maximum change in fluorescence, expressed in arbitrary units over baseline (Max-Min) was used to determine the GROα response.
as §2

T1 sequence (P25025 whole entry): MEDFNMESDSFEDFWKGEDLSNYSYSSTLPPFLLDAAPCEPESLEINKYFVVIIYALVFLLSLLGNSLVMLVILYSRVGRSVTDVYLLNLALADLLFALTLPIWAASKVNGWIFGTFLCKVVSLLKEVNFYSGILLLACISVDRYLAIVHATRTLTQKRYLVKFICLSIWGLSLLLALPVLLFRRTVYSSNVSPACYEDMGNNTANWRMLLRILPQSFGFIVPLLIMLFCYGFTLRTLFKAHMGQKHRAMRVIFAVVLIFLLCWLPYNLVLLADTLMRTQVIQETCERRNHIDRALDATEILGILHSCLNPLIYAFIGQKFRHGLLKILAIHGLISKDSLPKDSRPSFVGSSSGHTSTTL

SMILES | total neutrophil counts in the blood (neutrophil influx [1]) | plasma level [3] | inhibition of β-arrestin recruitment following CXCR2 activation with IL-8 (CXCR2 [5]) | activity on β-arrestin complexation with CXCR2 in the absence of IL8 (CXCR2 [5]) | aqueous solubility (Aqueous solubility) | IC50 (CXCR2 [7]) [nM] | other results
O=C(Nc1ccc(F)cc1)c1ccc(SCc2cc(OC(F)(F)F)ccc2B(O)O)nc1 [Compound 2, 6-(2-boronic acid-5-trifluoromethoxy-benzylsulfanyl)-N-(4-fluoro-phenyl)-nicotinamide] | not significantly changed | undetected | inhibited arrestin recruitment | acted as inverse agonists | poor | – | neutrophil influx (neutrophil influx [1]; 0.05 mg/kg p.o., FIG. 5): decrease of neutrophil influx; neutrophil influx (neutrophil influx [1]; doses in excess of 1 mg/kg p.o., FIG. 5): increase in neutrophil influx; inhibition of GROα mediated intracellular calcium release after inhibitor washout (CXCR2 [2]): dose-dependent and wash-resistant inhibition; bioavailability following oral administration ([3]; Beagle dogs, 5 mg/kg oral in Gelucire 44/14): improved; influx of neutrophils into the lungs ([4]; BALF at 24 h, FIG. 7a): significantly decreased; influx of macrophages into the lungs ([4]; BALF at 24 h, FIG. 7b): significantly decreased; ozone-induced lung damage (protein levels in the BALF) ([4]; FIG. 7c): protected against ozone-induced lung damage; neutrophil influx (neutrophil influx [6]): significantly attenuate neutrophil influx
COc1ccc(B(O)O)c(CSc2ccc(C(=O)Nc3ccc(F)cc3)cn2)c1 [Compound 4, 6-(2-boronic acid-5-methoxy-benzylsulfanyl)-N-(4-fluoro-phenyl)-nicotinamide] | – | – | – | – | – | 79 | –
Cc1nn(-c2ccccc2)nc1CSc1ccc(C(=O)Nc2ccc(F)cc2)cn1 [Compound 48] | – | – | – | – | – | > 5000 | –
O=C(Nc1ccc(F)cc1)c1ccc(SCc2ccccc2B(O)O)nc1 [Compound 1, 6-(2-borono-2-yl-benzylsulfanyl)-N-(4-fluoro-phenyl)-nicotinamide] | not significantly changed | undetected | inhibited arrestin recruitment | acted as inverse agonists | poor | – | neutrophil influx (neutrophil influx [1]; 0.005 and 0.2 p.o., FIG. 4): decrease of neutrophil influx; neutrophil influx (neutrophil influx [1]; doses in excess of 10 mg/kg p.o., FIG. 4): increase in neutrophil influx; agonist activity with respect to the release of intracellular calcium (CXCR2 [8]; listed as 1 (SX-517)): did not show agonist activity; agonist activity with respect to the release of intracellular calcium (CXCR2 [8]; listed as SX-517): did not exhibit any agonist activity
O=C(Nc1ccc(F)cc1)c1ccc(SC2CCOC2=O)nc1 (stereo not shown) [Compound 81] | – | – | – | – | – | > 5000 | –
